Tests used:
[1] = Binding of metal complexes to particulate carrier (1H NMR relaxation of supernatant); conditions: to calcium phosphate basic; 0.4ml 50mM metal complex, pH 7.5, 3 minutes
Method: (§1) The particulates used were generally used as suspensions in distilled water for these studies (250mg/ml). The solid from 1ml of particulate solution was isolated by centrifugation and the supernatant removed. 0.4ml of a 50mM metal complex solution at pH = 7.5 was added and the solid resuspended. […] After 3 minutes the solid was isolated by centrifugation washed once by resuspension in distilled water (0.4ml) followed by recentrifugation to isolate the products. The initial supernatant was analysed by ¹H NMR relaxation measurements at 200MHz and the amount of metal complex bound to the particulate calculated.

[2] = as above; conditions: to calcium pyrophosphate; 0.4ml 50mM metal complex, pH 7.5, 3 minutes
Method: (§2) The particulates used were generally used as suspensions in distilled water for these studies (250mg/ml). The solid from 1ml of particulate solution was isolated by centrifugation and the supernatant removed. 0.4ml of a 50mM metal complex solution at pH = 7.5 was added and the solid resuspended. […] After 3 minutes the solid was isolated by centrifugation washed once by resuspension in distilled water (0.4ml) followed by recentrifugation to isolate the products. The initial supernatant was analysed by ¹H NMR relaxation measurements at 200MHz and the amount of metal complex bound to the particulate calculated. The particulates were resuspended at 10 mg/ml and the T1 and T2 relaxation times measured at 10MHz and 37°C.

[3] = Binding of 153Gd labelled gadolinium complexes, radioactive assay; conditions: total activity of the filtrate as percentage of the original; 12.5mM Gd, 25mM phosphonate where present
Method: The binding of gadolinium complexes was also assayed using ¹⁵³Gd labelled solutions. The particulates were used as suspensions (250mg/ml) and isolated by centrifugation. 0.4ml of a radioactively labelled gadolinium complex was then added and the solid resuspended. After three minutes the solid was filtered through a glass sinter and washed with water (≃10ml). The total activity of the filtrate was measured and expressed as a percentage of the original. The gadolinium concentration of the complex in this assay was 12.5mM and the concentration of phosphonate (where present) was 25mM. A further assay involved the addition of 25mM, and 37.5mM Gd with concomitant increase in the phosphonate concentration.

[4] = Binding of metal complexes to particulate carrier (1H NMR relaxation of supernatant); conditions: to sodium phosphate glass; 0.4ml 50mM metal complex, pH 7.5, 3 minutes
Method: as §2

[5] = as above; conditions: to calcium phosphate neutral; 0.4ml 50mM metal complex, pH 7.5, 3 minutes
Method: as §1

[6] = as above; conditions: to aluminium hydroxide; 0.4ml 50mM metal complex, pH 7.5, 3 minutes
Method: as §1

[7] = as above; conditions: to magnesium trisilicate; 0.4ml 50mM metal complex, pH 7.5, 3 minutes
Method: as §2

[8] = as above; conditions: to calcium hydroxide; 0.4ml 50mM metal complex, pH 7.5, 3 minutes
Method: as §1

[9] = as above; conditions: to silica; 0.4ml 50mM metal complex, pH 7.5, 3 minutes
Method: as §2

[10] = as above; conditions: to magnesium hydroxide; 0.4ml 50mM metal complex, pH 7.5, 3 minutes
Method: as §2

[11] = Stability of 153Gd labelled adducts in acid solution; format: physicochemical; conditions: 5ml 0.2M HCl, 24hrs, percentage of the original activity
Method: The stability of the adducts in acid solution was assayed using ¹⁵³Gd labelled adducts. The adducts were prepared as in the binding assays described previously. 5ml of 0.2M HCl was then added to the adduct which was resuspended and left for 24hrs. The suspensions were then filtered through a glass sinter and washed with 5ml distilled water. The total filtrate was then placed into an ion chamber and the total activity measured.

[12] = Binding of metal complexes to particulate carrier (1H NMR relaxation of supernatant); conditions: to aluminium phosphate; 0.4ml 50mM metal complex, pH 7.5, 3 minutes
Method: as §1

[13] = as above; conditions: to calcium phosphate ortho; 0.4ml 50mM metal complex, pH 7.5, 3 minutes
Method: The solid from 1ml of particulate solution was isolated by centrifugation and the supernatant removed. 0.4ml of a 50mM metal complex solution at pH = 7.5 was added and the solid resuspended. […] After 3 minutes the solid was isolated by centrifugation washed once by resuspension in distilled water (0.4ml) followed by recentrifugation to isolate the products. The initial supernatant was analysed by ¹H NMR relaxation measurements at 200MHz and the amount of metal complex bound to the particulate calculated.

Molecule | % Bound [1] [%] | % Bound [2] [%] | BINDING TO CaPO₄ - RADIOACTIVE ASSAY [3] [%] | BINDING TO CaPYROPHOSPHATE - RADIOACTIVE ASSAY [3] [%] | % Bound [4] [%] | % Bound [5] [%] | % Bound [6] [%] | % Bound [7] [%] | % Bound [8] [%] | % Bound [9] [%] | % Bound [10] [%] | PERCENTAGE ACTIVITY IN SUPERNATANT ([11]; adduct with Ca₂P₂O₇) [%] | PERCENTAGE ACTIVITY IN SUPERNATANT ([11]; adduct with Ca₃(PO₄)₂) [%] | % Bound [12] [%] | % Bound [13] [%]
[Cl][Gd]([Cl])[Cl] [GdCl₃] | 99 | 68 | 2.07 | 0.14 | 48 | 98 | 98 | 89 | 99 | 66 | 99 | 0.41 | 0.54 | – | –
[Cl][Fe]([Cl])[Cl] [FeCl₃] | 96 | 50 | – | – | 41 | 92 | 89 | 93 | 98 | 46 | 96 | – | – | 78 | –
ferric citrate | 80 | 28 | – | – | 26 | 68 | 80 | 50 | 74 | 16 | 89 | – | – | 18 | 82

Source: EP0275215B1, “Contrast agents for the gastrointestinal tract” (GUERBET S.A., priority 1987, dated 1988)
